Laboratory results as given in patent US10112937B2, “P2X7 modulators and methods of use” (Janssen Pharmaceutica NV, priority 2013, dated 2018).

What was measured:
Format in all cases: cell-based
rat P2X7 = rat P2X7 (Rattus norvegicus (Rat), UniProt Q64663); test: Ca2+ flux (FLIPR) in 1321N1 cells expressing recombinant rat P2X7;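 also: Calcium-4 dye fluorescence change read 180 s after agonist addition, with cells preincubated 30 min with compound and dye in 96-well plates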
Experimental: (§1) P2X7 Antagonism in Recombinant Human P2X7 Cells or Recombinant Rat P2X7 Cells: (a) Ca^2+ Flux and (b) Radioligand Binding
(§2) 1321N1 cells expressing the recombinant human or rat P2X7 channel was cultured in HyQ DME/(HyClone/Dulbecco's Modified Eagle Medium) high glucose supplemented with 10% Fetal Bovine Serum (FBS) and appropriate selection marker. Cells were seeded at a density of 25000 cells/well (96-well clear bottom black walled plates) in 100 μl volume/well. On the day of the experiment, cell plates were washed with assay buffer, containing (in mM): 130 NaCl, 2 KCl, 1 CaCl2, 1 MgCl2, 10 HEPES, 5 glucose; pH 7.40 and 300 mOs. After the wash, cells were loaded with the Calcium-4 dye (Molecular Device) and incubated in the dark for 60 minutes. Test compounds were prepared at 250× the test concentration in neat DMSO. Intermediate 96-well compound plates were prepared by transferring 1.2 μL of the compound into 300 μL of assay buffer. A further 3× dilution occurred when transferring 50 μL/well of the compound plate to 100 μL/well in the cell plate. Cells were incubated with test compounds and dye for 30 minutes. […] The fluorescence change was measured 180 seconds after adding the agonist.

human P2X7 [1] = target: T1, human P2X7 (Homo sapiens (Human), UniProt Q99572); test: Ca2+ flux (FLIPR) in 1321N1 cells expressing recombinant human P2X7;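 also: cells loaded with Calcium-4 dye, preincubated with test compound for 30 min, fluorescence change read 180 s after agonist addition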
Experimental: as §1, §2

human P2X7 [2] = target: T1, human P2X7; test: P2X7 antagonism in human PBMCs (IL-1β release after LPS + Bz-ATP, ELISA); conditions: human PBMCs; for PBMC 1 μM (% control): test compound 1 μM
[3] = 1321N1 cells, recombinant rat P2X7, 250 μM BzATP
[4] = 1321N1 cells, recombinant human P2X7, 250 μM BzATP
[5] = Ca2+ flux, 250 μM BzATP, rat P2X7 1321N1 cells
[6] = Ca2+ flux, 250 μM BzATP, human P2X7 1321N1 cells
[7] = 10 μM test compound, LPS + Bz-ATP

T1 sequence (Q99572 whole entry): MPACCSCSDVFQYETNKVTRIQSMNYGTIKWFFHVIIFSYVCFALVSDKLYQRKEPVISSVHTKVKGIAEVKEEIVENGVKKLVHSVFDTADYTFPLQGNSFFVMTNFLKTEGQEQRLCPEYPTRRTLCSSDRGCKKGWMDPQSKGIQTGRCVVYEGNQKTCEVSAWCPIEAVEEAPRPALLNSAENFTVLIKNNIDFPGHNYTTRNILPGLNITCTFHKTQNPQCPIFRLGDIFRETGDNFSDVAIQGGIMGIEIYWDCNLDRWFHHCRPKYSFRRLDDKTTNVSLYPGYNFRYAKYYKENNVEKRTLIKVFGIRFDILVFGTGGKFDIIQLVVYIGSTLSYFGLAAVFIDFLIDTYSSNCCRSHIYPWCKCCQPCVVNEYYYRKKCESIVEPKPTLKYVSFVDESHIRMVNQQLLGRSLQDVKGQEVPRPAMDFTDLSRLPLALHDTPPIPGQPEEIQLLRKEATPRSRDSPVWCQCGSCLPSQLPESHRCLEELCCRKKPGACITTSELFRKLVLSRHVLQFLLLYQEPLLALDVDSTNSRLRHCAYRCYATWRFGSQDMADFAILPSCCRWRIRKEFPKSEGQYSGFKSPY
Chain of rat P2X7 (Q64663 whole entry): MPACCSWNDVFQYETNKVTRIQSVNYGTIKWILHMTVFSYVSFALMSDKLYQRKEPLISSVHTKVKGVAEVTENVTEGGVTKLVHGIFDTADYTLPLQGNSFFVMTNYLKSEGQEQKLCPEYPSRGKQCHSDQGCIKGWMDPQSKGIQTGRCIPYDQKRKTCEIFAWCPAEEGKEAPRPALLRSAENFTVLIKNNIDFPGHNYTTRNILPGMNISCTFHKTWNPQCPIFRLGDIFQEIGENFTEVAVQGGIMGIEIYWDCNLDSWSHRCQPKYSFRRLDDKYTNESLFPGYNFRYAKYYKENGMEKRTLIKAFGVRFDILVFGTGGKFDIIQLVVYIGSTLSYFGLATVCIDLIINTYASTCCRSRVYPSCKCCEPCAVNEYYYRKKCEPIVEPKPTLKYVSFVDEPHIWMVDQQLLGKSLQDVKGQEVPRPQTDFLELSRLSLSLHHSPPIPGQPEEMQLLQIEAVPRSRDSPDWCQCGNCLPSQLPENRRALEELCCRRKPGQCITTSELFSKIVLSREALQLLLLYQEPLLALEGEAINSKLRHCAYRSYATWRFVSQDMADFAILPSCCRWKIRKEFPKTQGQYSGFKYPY

Row | SMILES | IC50 (rat P2X7; [3]) [nM] | IC50 (human P2X7 [1]; [4]) [nM] | PBMC 10 μM (% control) (human P2X7 [2]; test compound 10 μM) | further results
1 | Cc1c(C(=O)N2Cc3nnn(-c4ccn[nH]4)c3C[C@@H]2C)cccc1C(F)(F)F (single isomer, unassigned) [Example 347, (S*)-(6-methyl-1-(1H-pyrazol-3-yl)-6,7-dihydro-1H-[1,2,3]triazolo[4,5-c]pyridin-5(4H)-yl)(2-methyl-3-(trifluoromethyl)phenyl)methanone] | 324 | 1200 | 2.0 | –
2 | Cc1cc(-n2nnc3c2CCN(C(=O)c2cc(Cl)cc(C(F)(F)F)c2)[C@@H]3C)ncc1F (single isomer, unassigned) [Example 362, (R*)-(3-chloro-5-(trifluoromethyl)phenyl)(1-(5-fluoro-4-methylpyridin-2-yl)-4-methyl-6,7-dihydro-1H-[1,2,3]triazolo[4,5-c]pyridin-5(4H)-yl)methanone] | > 10000 | > 10000 | 90.2 | –
3 | Cc1cc(-n2nnc3c2CCN(C(=O)c2cc(Cl)cc(C(F)(F)F)c2)[C@H]3C)ncc1F (single isomer, unassigned) [Example 363, (S*)-(3-chloro-5-(trifluoromethyl)phenyl)(1-(5-fluoro-4-methylpyridin-2-yl)-4-methyl-6,7-dihydro-1H-[1,2,3]triazolo[4,5-c]pyridin-5(4H)-yl)methanone] | > 10000 | > 10000 | 63.9 | –
4 | Cc1cc(-n2nnc3c2CCN(C(=O)c2ccnc(C(F)(F)F)c2Cl)[C@H]3C)ncc1F (single isomer, unassigned) [Example 372, (S*)-(3-chloro-2-(trifluoromethyl)pyridin-4-yl)(1-(5-fluoro-4-methylpyridin-2-yl)-4-methyl-6,7-dihydro-1H-[1,2,3]triazolo[4,5-c]pyridin-5(4H)-yl)methanone] | 8730 | 1630 | 1.3 | –
5 | Cc1ccnc(-n2nnc3c2CCN(C(=O)c2cccc(OC(F)(F)F)c2)C3C)c1 (single isomer, unassigned) [Example 377, (S*)-(4-methyl-1-(4-methylpyridin-2-yl)-6,7-dihydro-1H-[1,2,3]triazolo[4,5-c]pyridin-5(4H)-yl)(3-(trifluoromethoxy)phenyl)methanone] | – | 5510 | 8.1 | –
6 | C[C@H]1Cc2c(nnn2-c2cc[nH]n2)CN1C(=O)c1ccnc(C(F)(F)F)c1Cl (single isomer, unassigned) [Example 422, (S*)-(3-chloro-2-(trifluoromethyl)pyridin-4-yl)(6-methyl-1-(1H-pyrazol-3-yl)-6,7-dihydro-1H-[1,2,3]triazolo[4,5-c]pyridin-5(4H)-yl)methanone] | – | – | – | IC50 (rat P2X7; [5]): 3.1 nM; IC50 (human P2X7 [1]; [6]): 14.4 nM; PBMC 10 μM (% control) (human P2X7 [2]; [7]): −9.6 % control
7 | C[C@H]1Cc2c(nnn2-c2cc[nH]n2)CN1C(=O)c1ccnc(C(F)(F)F)c1F (single isomer, unassigned) [Example 424, (S*)-(3-fluoro-2-(trifluoromethyl)pyridin-4-yl)(6-methyl-1-(1H-pyrazol-3-yl)-6,7-dihydro-1H-[1,2,3]triazolo[4,5-c]pyridin-5(4H)-yl)methanone] | – | – | – | IC50 (rat P2X7; [5]): 4.6 nM; IC50 (human P2X7 [1]; [6]): 14 nM; PBMC 10 μM (% control) (human P2X7 [2]; [7]): −11.2 % control
8 | CC1c2ncn(-c3ccc(F)cn3)c2CCN1C(=O)c1ccc(F)cc1Cl (stereo not drawn) [Example 256, (2-chloro-4-fluorophenyl)(1-(5-fluoropyridin-2-yl)-4-methyl-6,7-dihydro-1H-imidazo[4,5-c]pyridin-5(4H)-yl)methanone] | – | 4370 | 7.1 | –
9 | O=C(c1ccc(Cl)cc1Cl)N1CCc2c(ncn2-c2ccc(F)cn2)C1 [Example 313, (2,4-dichlorophenyl)(1-(5-fluoropyridin-2-yl)-6,7-dihydro-1H-imidazo[4,5-c]pyridin-5(4H)-yl)methanone] | – | 880 | −5.4 | –
10 | Cc1ccnc(-n2nnc3c2CCN(C(=O)c2cccc(OC(F)(F)F)c2)C3C)c1 (stereo not drawn) [Example 375, (4-methyl-1-(4-methylpyridin-2-yl)-6,7-dihydro-1H-[1,2,3]triazolo[4,5-c]pyridin-5(4H)-yl)(3-(trifluoromethoxy)phenyl)methanone] | – | > 10000 | 63.3 | –
11 | Cc1cc(-n2nnc3c2CCN(C(=O)c2cccc(C(F)(F)F)c2Cl)C3C)ncn1 (stereo not drawn) [Example 402, (2-chloro-3-(trifluoromethyl)phenyl)(4-methyl-1-(6-methylpyrimidin-4-yl)-6,7-dihydro-1H-[1,2,3]triazolo[4,5-c]pyridin-5(4H)-yl)methanone] | – | 879 | 0.3 | –

Further lines, with some results ahead:

Row | IC50 (rat P2X7; [3]) [nM] | IC50 (human P2X7 [1]; [4]) [nM] | PBMC 10 μM (% control) (human P2X7 [2]; test compound 10 μM) | SMILES | further results
12 | 2910 | 12.1 | – | O=C(c1cccc(C(F)(F)F)c1Cl)N1CCc2c(ncn2-c2ccccc2)C1 [Example 2, (2-Chloro-3-(trifluoromethyl)phenyl)(1-phenyl-6,7-dihydro-1H-imidazo[4,5-c]pyridin-5(4H)-yl)methanone] | PBMC 1 μM (% control) (human P2X7 [2]): 7.9 % control
13 | – | 81.4 | – | CCC1c2ncn(-c3cnccn3)c2CCN1C(=O)c1cccc(C(F)(F)F)c1Cl (stereo not drawn) [Example 15, (2-Chloro-3-(trifluoromethyl)phenyl)(4-ethyl-1-(pyrazin-2-yl)-6,7-dihydro-1H-imidazo[4,5-c]pyridin-5(4H)-yl)methanone] | PBMC 1 μM (% control) (human P2X7 [2]): 9.1 % control
14 | 257 | 93.7 | – | CC(C)C1c2ncn(-c3cnccn3)c2CCN1C(=O)c1cccc(C(F)(F)F)c1Cl (stereo not drawn) [Example 16, (2-Chloro-3-(trifluoromethyl)phenyl)(4-isopropyl-1-(pyrazin-2-yl)-6,7-dihydro-1H-imidazo[4,5-c]pyridin-5(4H)-yl)methanone] | PBMC 1 μM (% control) (human P2X7 [2]): 8.5 % control
15 | – | 90 | 1.6 | CC1c2ncn(-c3ncccc3F)c2CCN1C(=O)c1cccc(C(F)(F)F)c1Cl (stereo not drawn) [Example 21, (2-Chloro-3-(trifluoromethyl)phenyl)(1-(3-fluoropyridin-2-yl)-4-methyl-6,7-dihydro-1H-imidazo[4,5-c]pyridin-5(4H)-yl)methanone] | –
16 | 26.2 | 23.3 | – | CCOC(=O)C1c2ncn(-c3ccccn3)c2CCN1C(=O)c1cccc(C(F)(F)F)c1Cl (stereo not drawn) [Example 24, Ethyl 5-(2-chloro-3-(trifluoromethyl)benzoyl)-1-(pyridin-2-yl)-4,5,6,7-tetrahydro-1H-imidazo[4,5-c]pyridine-4-carboxylate] | PBMC 1 μM (% control) (human P2X7 [2]): 2.9 % control
17 | – | 142 | – | CCOC(=O)C1c2ncn(-c3ccccn3)c2CCN1C(=O)c1cccc(Cl)c1Cl (stereo not drawn) [Example 25, Ethyl 5-(2,3-dichlorobenzoyl)-1-(pyridin-2-yl)-4,5,6,7-tetrahydro-1H-imidazo[4,5-c]pyridine-4-carboxylate] | PBMC 1 μM (% control) (human P2X7 [2]): 9.7 % control
18 | 54.9 | 7.7 | – | CCOC(=O)C1c2ncn(-c3ccccc3)c2CCN1C(=O)c1cccc(C(F)(F)F)c1Cl (stereo not drawn) [Example 26, Ethyl 5-(2-chloro-3-(trifluoromethyl)benzoyl)-1-phenyl-4,5,6,7-tetrahydro-1H-imidazo[4,5-c]pyridine-4-carboxylate] | PBMC 1 μM (% control) (human P2X7 [2]): 14.0 % control
19 | 2500 | 62 | – | CCOC(=O)C1c2ncn(-c3cnccn3)c2CCN1C(=O)c1cccc(Cl)c1Cl (stereo not drawn) [Example 29, Ethyl 5-[(2,3-dichlorophenyl)carbonyl]-1-pyrazin-2-yl-4,5,6,7-tetrahydro-1H-imidazo[4,5-c]pyridine-4-carboxylate] | –
20 | 235 | 348 | – | O=C(C1c2ncn(-c3ccccn3)c2CCN1C(=O)c1cccc(C(F)(F)F)c1Cl)N1CCC1 (stereo not drawn) [Example 35, 4-(Azetidin-1-ylcarbonyl)-5-{[2-chloro-3-(trifluoromethyl)phenyl]carbonyl}-1-pyridin-2-yl-4,5,6,7-tetrahydro-1H-imidazo[4,5-c]pyridine] | –
21 | – | 22.8 | −9.2 | O=C(c1cccc(C(F)(F)F)c1Cl)N1CCc2c(nnn2-c2ncc(F)cn2)C1 [Example 64, 5-{[2-Chloro-3-(trifluoromethyl)phenyl]carbonyl}-1-(5-fluoropyrimidin-2-yl)-4,5,6,7-tetrahydro-1H-[1,2,3]triazolo[4,5-c]pyridine] | –
22 | 210 | 39.4 | – | O=C(c1cccc(C(F)(F)F)c1Cl)N1CCc2c(nnn2-c2ccn[nH]2)C1 [Example 68, 5-{[2-Chloro-3-(trifluoromethyl)phenyl]carbonyl}-1-(1H-pyrazol-5-yl)-4,5,6,7-tetrahydro-1H-[1,2,3]triazolo[4,5-c]pyridine] | –
23 | – | 29.3 | −3.1 | CC1c2ncn(-c3ccc(F)cn3)c2CCN1C(=O)c1ccc(F)c(Cl)c1Cl (stereo not drawn) [Example 261, (2,3-dichloro-4-fluorophenyl)(1-(5-fluoropyridin-2-yl)-4-methyl-6,7-dihydro-1H-imidazo[4,5-c]pyridin-5(4H)-yl)methanone] | –
24 | – | 17.5 | −1.6 | Cc1c(C(=O)N2CCc3c(ncn3-c3ccc(F)cn3)C2C)cccc1C(F)(F)F (stereo not drawn) [Example 263, (1-(5-fluoropyridin-2-yl)-4-methyl-6,7-dihydro-1H-imidazo[4,5-c]pyridin-5(4H)-yl)(2-methyl-3-(trifluoromethyl)phenyl)methanone] | –
25 | – | 114 | 9.5 | Cc1c(C(=O)N2CCc3c(ncn3-c3ccc(F)cn3)C2)cccc1C(F)(F)F [Example 312, (1-(5-fluoropyridin-2-yl)-6,7-dihydro-1H-imidazo[4,5-c]pyridin-5(4H)-yl)(2-methyl-3-(trifluoromethyl)phenyl)methanone] | –
